Drawing on PubChem BioAssay AID743059 (The Scripps Research Institute Molecular Screening Center, 2013), this text covers EC50 for 18 compounds.

Structures are written as SMILES. Activity calls are given as the source filed them.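 How the source made its calls: active means EC50 at or below 10 µM; inactive means EC50 above 10 µM.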

The target in the assay is Nuclear hormone receptor DAF-12 (Heterodera glycines). Description: H. glycines DAF-12 receptor agonist potency, dose response, cell-based, luminescence, HEK293 (AID 743059). Conditions: HEK293 hgDAF-12 reporter, luciferase luminescence.
For the compound `CCCS(=O)(=O)NCc1cn2c(C)csc2n1`, the EC50 is > 67.5 µM (inactive).

As to `COc1cccc(-c2nc3ccccc3s2)c1`, the EC50 is > 67.5 µM (inactive).

With `Cc1ccc(-c2nc(Nc3ccccc3)n[nH]2)cc1`, the EC50 is > 67.5 µM (inactive).

Take `O=C(NCCCn1ccnc1)c1cc(-c2cccs2)on1`: the EC50 is 9.01 µM.

For the compound `O=C(Nc1ccn(Cc2ccccc2)n1)c1n[nH]c([N+](=O)[O-])c1Cl`, the EC50 is > 67.5 µM (inactive).

As for `c1ccc(CSc2ccc(-c3cccs3)nn2)cc1`, the EC50 is > 67.5 µM (inactive).

On to `CN(C)c1ccc(Nc2nc(-c3cccnc3)cs2)cc1`, for which the EC50 was > 67.5 µM (inactive).

For the compound `N/C(=N\OC(=O)c1cc(Br)ccc1Cl)c1ccccn1`, the EC50 is > 67.5 µM (inactive).

Consider `Cc1ccc(Nc2ncccc2C(N)=O)cc1[N+](=O)[O-]`, for which the EC50 is > 67.6 µM (inactive).

Consider `Oc1ccc(N=Nc2ccc3ccccc3c2)cc1`, for which the EC50 was > 67.5 µM (inactive).

For the compound `Cc1ccc(SCCSc2ncccn2)cc1`, the EC50 is > 67.5 µM (inactive).

Turning to `Cc1ccnc(NC(=O)C2CCN(S(=O)(=O)c3c(C)c(C)cc(C)c3C)CC2)c1`, the EC50 was > 67.6 µM (inactive).

On to `CN(C)c1cccc(-c2cnc(N3CCC(C(N)=O)CC3)s2)c1`, for which the EC50 was > 67.5 µM (inactive).

`Cc1cnc(NC(=O)COc2ccc3c(c2)CCC3)s1`: the EC50 was > 67.6 µM (inactive).

Take `Clc1ccccc1Nc1nnc(-c2ccncc2)s1`: the EC50 is > 67.5 µM (inactive).

Consider `Cc1cc(C(=O)CSc2cccc[n+]2[O-])c(C)n1-c1ccccc1`, for which the EC50 is > 67.5 µM (inactive).

With `Cc1cc(NC(=O)c2nn3cccnc3c2Cl)no1`, the EC50 was > 67.5 µM (inactive).

In the case of `CC1CCC(NC(=O)c2cccn2C)CC1` (stereo not drawn), the EC50 was > 67.6 µM (inactive).
